Drawing on patent US11932634B2 (Gilead Sciences, Inc., priority 2021, dated 2024), this text covers IC50 and EC50 for 20 molecules.

pEC50, pIC50: −log10 of the molar value.

One assay deals with T1, human DGKα (Homo sapiens, UniProt P23743).
T1 construct: purchased Carna Biosciences'; inferred from the same paragraph's 'obtained from Carna Biosciences')
The experiment in a line: DGKα Biochemical Activity Assay (ADP-Glo). (In ADP-Glo the light output rises with the ADP produced.)

Assay [1] deals with Jurkat NFκB-luciferase cells. The experiment in a line: Jurkat NFκB-Luciferase Assay.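 Also: bioluminescence read-out normalized to DMSO basal activation and to maximum enhancement at 1 µM compound, rising signal indicating stronger T-cell activation through DGKα inhibition.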 The format is cell-based. To be noted: Homo sapiens; Jurkat NFκB-luciferase cells activated with anti-CD3 antibody (OKT3), 2.5 hrs at 37° C., One-Glo Ex; geometric mean; read-out: DGK NFKb Luciferase EC50.
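For IC50 in this document: recombinant enzyme converting diacylglycerol in lipid micelles with ATP, ADP formed detected by luminescence, IC50 from a four-parameter nonlinear fit, geometric mean across experiments.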

T1 sequence (P23743 whole entry): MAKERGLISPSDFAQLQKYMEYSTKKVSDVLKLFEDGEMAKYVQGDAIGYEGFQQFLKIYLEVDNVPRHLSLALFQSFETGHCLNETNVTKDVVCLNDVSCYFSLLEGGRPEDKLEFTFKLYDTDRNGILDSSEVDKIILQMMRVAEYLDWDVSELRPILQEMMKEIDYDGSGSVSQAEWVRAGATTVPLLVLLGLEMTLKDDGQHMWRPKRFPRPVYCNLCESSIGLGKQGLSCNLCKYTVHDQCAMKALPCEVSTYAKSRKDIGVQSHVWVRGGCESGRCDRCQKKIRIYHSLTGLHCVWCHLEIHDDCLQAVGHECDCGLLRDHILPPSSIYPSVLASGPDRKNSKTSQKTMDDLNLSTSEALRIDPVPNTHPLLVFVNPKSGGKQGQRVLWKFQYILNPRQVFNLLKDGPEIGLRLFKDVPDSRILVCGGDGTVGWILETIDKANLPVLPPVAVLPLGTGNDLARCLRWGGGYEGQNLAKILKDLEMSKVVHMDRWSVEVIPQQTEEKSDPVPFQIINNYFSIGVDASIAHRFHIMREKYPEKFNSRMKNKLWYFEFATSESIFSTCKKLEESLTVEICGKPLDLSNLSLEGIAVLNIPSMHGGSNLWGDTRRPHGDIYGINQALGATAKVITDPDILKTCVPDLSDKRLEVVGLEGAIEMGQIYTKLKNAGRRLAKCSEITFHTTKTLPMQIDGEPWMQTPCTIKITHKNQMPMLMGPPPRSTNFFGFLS

What is called pIC50 is the IC50 on a negative log10 scale, so that one unit is a factor of ten. Higher therefore signals a low IC50. As a reminder, the pEC50 is −log10 of the EC50, conventionally taken in molar units. `[2H]C([2H])([2H])n1c(=O)nc(N2CCCc3c(C#CC(C)(C)O)cccc32)c2c(F)cccc21` [Example 55, 5-fluoro-4-[5-(3-hydroxy-3-methyl-but-1-ynyl)-3,4-dihydro-2H-quinolin-1-yl]-1-(trideuteriomethyl)quinazolin-2-one] gave a pIC50 against human DGKα of 8.24. Further, in assay [1], the pEC50 is 8.33.
As to `CCC(C)(O)C#Cc1cccc2c1CCCN2c1nc(=O)[nH]c2cccc(F)c12` (stereo not shown) [Example 56, 5-fluoro-4-[5-(3-hydroxy-3-methyl-pent-1-ynyl)-3,4-dihydro-2H-quinolin-1-yl]-1H-quinazolin-2-one], on human DGKα, the pIC50 is 7.50. The pEC50 in assay [1] was 8.29.
For `CCC(O)(C#Cc1cccc2c1CCCN2c1nc(=O)[nH]c2cccc(F)c12)CC` [Example 57, 4-[5-(3-ethyl-3-hydroxy-pent-1-ynyl)-3,4-dihydro-2H-quinolin-1-yl]-5-fluoro-1H-quinazolin-2-one], in that order: 6.82 and 8.00.
As to `O=c1nc(N(CC(F)F)c2cccc(C#CC3(C(F)(F)F)CC3)c2F)c2c(F)cccc2[nH]1` [Example 58, 4-[N-(2,2-difluoroethyl)-2-fluoro-3-[2-[1-(trifluoromethyl)cyclopropyl]ethynyl]anilino]-5-fluoro-1H-quinazolin-2-one], the pIC50 against human DGKα was 7.14. For the same molecule, the pEC50 in assay [1] was 9.55.
With `CC(C)(O)C#Cc1cccc(N(CC(F)F)c2nc(=O)[nH]c3cccc(F)c23)c1F` [Example 59, 4-[N-(2,2-difluoroethyl)-2-fluoro-3-(3-hydroxy-3-methyl-but-1-ynyl)anilino]-5-fluoro-M-quinazolin-2-one], the pIC50 at human DGKα was 8.12. Also, in assay [1], the pEC50 was 7.84.
For `CC(C)(C#Cc1cccc(N(CC(F)F)c2nc(=O)[nH]c3cccc(F)c23)c1F)C(F)(F)F` [Example 60, 4-[N-(2,2-difluoroethyl)-2-fluoro-3-(4,4,4-trifluoro-3,3-dimethyl-but-1-ynyl)anilino]-5-fluoro-1H-quinazolin-2-one], in that order: 6.91 and 8.60.
`CC1(C#Cc2cccc(N(CC(F)F)c3nc(=O)[nH]c4cccc(F)c34)c2F)CC1` [Example 61, 4-[N-(2,2-difluoroethyl)-2-fluoro-3-[2-(1-methylcyclopropyl)ethynyl]anilino]-5-fluoro-1H-quinazolin-2-one] showed a pIC50 against human DGKα of 7.32. For the same molecule, the pEC50 in assay [1] is 8.77.
In turn, `O=c1nc(N(CC(F)F)c2cccc(C#CC3(C(F)F)CC3)c2F)c2c(F)cccc2[nH]1` [Example 62, 4-[N-(2,2-difluoroethyl)-3-[2-[1-(difluoromethyl)cyclopropyl]ethynyl]-2-fluoro-anilino]-5-fluoro-1H-quinazolin-2-one] showed a pIC50 at human DGKα of 7.55. Further, the pEC50 in assay [1] was 8.95.
For `CC(C)(C#Cc1cccc(N(CC(F)F)c2nc(=O)[nH]c3cccc(F)c23)c1F)C(F)F` [Example 63, 4-[3-(4,4-difluoro-3,3-dimethyl-but-1-ynyl)-N-(2,2-difluoroethyl)-2-fluoro-anilino]-5-fluoro-1H-quinazolin-2-one], at human DGKα, the pIC50 is 6.55. Also, in assay [1], the negative-log EC50 (pEC50) is 8.82.
On to `[2H]C([2H])([2H])n1c(=O)nc(N(CC(F)F)c2cc(F)cc(C#CC(C)(C)O)c2)c2c(F)c(F)ccc21` [Example 64, 4-[N-(2,2-difluoroethyl)-3-fluoro-5-(3-hydroxy-3-methyl-but-1-ynyl)anilino]-5,6-difluoro-1-(trideuteriomethyl)quinazolin-2-one], for which the pIC50 against human DGKα was 7.97. In addition, the pEC50 in assay [1] is 8.05.
Take `CC(C)(O)C#Cc1cc(F)cc(N(CC(F)F)c2nc(=O)[nH]c3ccc(F)c(F)c23)c1` [Example 65, 4-[N-(2,2-difluoroethyl)-3-fluoro-5-(3-hydroxy-3-methyl-but-1-ynyl)anilino]-5,6-difluoro-1H-quinazolin-2-one]: on human DGKα, the pIC50 was 7.87. The pEC50 in assay [1] is 8.00.
In the case of `[2H]C([2H])([2H])n1c(=O)nc(N(CC(F)F)c2cc(F)cc(C#CC3(C)CCCO3)c2)c2c(F)c(F)ccc21` (stereo not shown) [Example 66, 4-[N-(2,2-difluoroethyl)-3-fluoro-5-[2-(2-methyltetrahydrofuran-2-yl)ethynyl]anilino]-5,6-difluoro-1-(trideuteriomethyl)quinazolin-2-one], on human DGKα, the pIC50 was 8.49. For the same molecule, the pEC50 in assay [1] was 8.55.
On human DGKα, `[2H]C([2H])([2H])n1c(=O)nc(N(CC(F)F)c2cc(F)cc(-c3cnc(C4CC4)cn3)c2)c2c(F)c(F)ccc21` [Example 67, 4-[3-(5-cyclopropylpyrazin-2-yl)-N-(2,2-difluoroethyl)-5-fluoro-anilino]-5,6-difluoro-1-(trideuteriomethyl)quinazolin-2-one] showed a pIC50 of 8.12. Further, in assay [1], the pEC50 was 9.28.
For `[2H]C([2H])([2H])n1c(=O)nc(N(CC(F)F)c2cc(F)cc(C#CC(C)(C)C#N)c2)c2c(F)c(F)ccc21` [Example 68, 4-[3-[2,2-difluoroethyl-[5,6-difluoro-2-oxo-1-(trideuteriomethyl)quinazolin-4-yl]amino]-5-fluoro-phenyl]-2,2-dimethyl-but-3-ynenitrile], in that order: 8.48 and 8.60.
Molecule `CC(C)(C#N)C#Cc1cc(F)cc(N(CC(F)F)c2nc(=O)[nH]c3ccc(F)c(F)c23)c1` [Example 69, 4-[3-[2,2-difluoroethyl-(5,6-difluoro-2-oxo-1H-quinazolin-4-yl)amino]-5-fluoro-phenyl]-2,2-dimethyl-but-3-ynenitrile] had a pIC50 against human DGKα of 7.57. Moreover, the pEC50 in assay [1] is 8.74.
Molecule `O=c1nc(N2CCCc3c(Br)cncc32)c2c(F)cccc2[nH]1` [Example 70, 4-(5-bromo-3,4-dihydro-1,7-naphthyridin-1(2H)-yl)-5-fluoroquinazolin-2(1H)-one] showed a pIC50 against human DGKα of 6.77. The pEC50 in assay [1] was 7.39.
On human DGKα, `O=c1nc(N2CCCc3c(C#CC4(C(F)(F)F)CC4)cncc32)c2c(F)cccc2[nH]1` [Example 71, 5-fluoro-4-(5-((1-(trifluoromethyl)cyclopropyl)ethynyl)-3,4-dihydro-1,7-naphthyridin-1(2H)-yl)quinazolin-2(1H)-one] showed a pIC50 of 7.73. In assay [1], the pEC50 is 8.85.
`CC(C)(C#Cc1cncc2c1CCCN2c1nc(=O)[nH]c2cccc(F)c12)C(F)(F)F` [Example 72, 5-fluoro-4-(5-(4,4,4-trifluoro-3,3-dimethylbut-1-yn-1-yl)-3,4-dihydro-1,7-naphthyridin-1(2H)-yl)quinazolin-2(1H)-one] had a pIC50 against human DGKα of 6.90. For the same molecule, the pEC50 in assay [1] is 8.24.
For `CC(F)(F)C1(C#Cc2cncc3c2CCCN3c2nc(=O)[nH]c3cccc(F)c23)CC1` [Example 73, 4-(5-((1-(1,1-difluoroethyl)cyclopropyl)ethynyl)-3,4-dihydro-1,7-naphthyridin-1(2H)-yl)-5-fluoroquinazolin-2(1H)-one], in that order: 7.74 and 8.72.
The like results for `O=c1nc(N2CCCc3c(C#CC4(C(F)(F)F)CC4)cncc32)c2c(F)c(F)ccc2[nH]1` [Example 74, 5,6-difluoro-4-(5-((1-(trifluoromethyl)cyclopropyl)ethynyl)-3,4-dihydro-1,7-naphthyridin-1(2H)-yl)quinazolin-2(1H)-one] were, in that order, 8.55 and 9.65.
